According to ChEMBL document CHEMBL5131541, “Structural Feature Analyzation Strategies toward Discovery of Orally Bioavailable PROTACs of Bruton's Tyrosine Kinase for the Treatment of Lymphoma” (J Med Chem, 2022):
pIC50: −log10 of the molar value.

Columns and labels:
[1] = target: T1, Tyrosine-protein kinase BTK (Homo sapiens, UniProt Q06187); experiment: Induction of BTK degradation in human MINO cells incubated for 24 hrs by Western blot; type: cell-based; conditions: dose 1-1000 nM, DDE = dose-dependent effect
T1 sequence (Q06187 whole entry): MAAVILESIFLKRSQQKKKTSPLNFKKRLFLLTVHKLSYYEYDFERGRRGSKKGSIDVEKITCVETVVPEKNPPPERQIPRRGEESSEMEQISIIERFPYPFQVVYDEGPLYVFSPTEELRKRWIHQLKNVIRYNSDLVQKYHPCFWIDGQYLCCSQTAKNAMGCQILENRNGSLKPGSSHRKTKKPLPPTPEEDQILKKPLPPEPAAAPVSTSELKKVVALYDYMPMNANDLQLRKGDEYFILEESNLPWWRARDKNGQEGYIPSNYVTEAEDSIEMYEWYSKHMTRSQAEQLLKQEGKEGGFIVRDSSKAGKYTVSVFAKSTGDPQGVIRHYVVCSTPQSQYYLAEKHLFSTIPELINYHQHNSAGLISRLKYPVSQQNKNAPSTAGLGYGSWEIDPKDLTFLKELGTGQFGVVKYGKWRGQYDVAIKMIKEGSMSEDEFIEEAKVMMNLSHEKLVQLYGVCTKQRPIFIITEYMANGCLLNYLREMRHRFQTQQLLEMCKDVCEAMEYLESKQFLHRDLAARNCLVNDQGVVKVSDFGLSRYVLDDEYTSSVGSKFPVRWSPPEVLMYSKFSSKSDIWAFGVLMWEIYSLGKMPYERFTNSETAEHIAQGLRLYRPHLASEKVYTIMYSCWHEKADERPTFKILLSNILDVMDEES

[2] = target: T1, Tyrosine-protein kinase BTK; experiment: Inhibition of BTK (unknown origin)
[3] = Half life in Sprague-Dawley rat at 5 to 10 mg/kg, po administered as cassette dose measured upto 24 hrs by LC-MS analysis; type: ADME, organism-based; conditions: in vivo, dose 5-10 mg/kg
[4] = Tmax in Sprague-Dawley rat at 5 to 10 mg/kg, po administered as cassette dose measured upto 24 hrs by LC-MS analysis; type: ADME, organism-based; conditions: in vivo, dose 5-10 mg/kg
[5] = Cmax in Sprague-Dawley rat at 5 to 10 mg/kg, po administered as cassette dose measured upto 24 hrs by LC-MS analysis; type: ADME, organism-based; design: time < 24 hrs, route po; conditions: in vivo, dose 5-10 mg/kg
[6] = AUC (0 to t) in Sprague-Dawley rat at 5 to 10 mg/kg, po administered as cassette dose measured upto 24 hrs by LC-MS analysis; type: ADME, organism-based; design: time < 24 hrs, route po; conditions: in vivo, dose 5-10 mg/kg
[7] = Dose normalized AUC (0 to t) in Sprague-Dawley rat at 5 to 10 mg/kg, po administered as cassette dose measured upto 24 hrs by LC-MS analysis; type: ADME, organism-based; conditions: in vivo, dose 5-10 mg/kg

SMILES	Activity [1]	pIC50 [2]	half-life [3]	Tmax [4]	Cmax [5]	AUC(0-t) at 24 h [6]	AUCt/dose [7]
Nc1ncnc2c1c(-c1ccc(Oc3ccccc3)cc1)nn2[C@@H]1CCCN(C(=O)CCCCCCC(=O)NCC#CCN2CCN(CC#Cc3ccc4c(c3)CN(C3CCC(=O)NC3=O)C4=O)CC2)C1 (stereo partly drawn)	Dde	8.05					
Nc1ncnc2c1c(-c1ccc(Oc3ccccc3)cc1)nn2[C@@H]1CCCN(C(=O)CCC(=O)NCC#CCN2CCN(CC#Cc3ccc4c(c3)CN(C3CCC(=O)NC3=O)C4=O)CC2)C1 (stereo partly drawn)	Dde	8.05					
O=C1CCC(N2Cc3cc(CCCN4CCN(CC#CCOc5ccc(C(F)(F)F)cc5)CC4)ccc3C2=O)C(=O)N1 (stereo not drawn)			2.2 h	0.3 h	99 ng/mL	236 ng·h/mL	47 ng·h/mL/mg
O=C1CCC(N2Cc3c(OC4CN(CC#CCN5CCN(c6ccc(C(F)(F)F)cc6)CC5)C4)cccc3C2=O)C(=O)N1 (stereo not drawn)			5.7 h	0.3 h	232 ng/mL	49 ng·h/mL	128 ng·h/mL/mg
O=C1CCC(N2Cc3cc(C#CCN4CCN(CC#CCOc5ccc(C(F)(F)F)cc5)CC4)ccc3C2=O)C(=O)N1 (stereo not drawn)			6 h	8.3 h	1550 ng/mL	15200 ng·h/mL	1524 ng·h/mL/mg
O=C1CCC(N2C(=O)c3ccc(N4CCN(CC#CCN5CCN(c6ccc(C(F)(F)F)cc6)CC5)CC4)cc3C2=O)C(=O)N1 (stereo not drawn)			14 h	2.8 h	200 ng/mL	1940 ng·h/mL	194 ng·h/mL/mg
O=C1CCC(N2C(=O)c3cccc(NCCN4CCN(CC#CCOc5ccc(C(F)(F)F)cc5)CC4)c3C2=O)C(=O)N1 (stereo not drawn)			17.7 h	3.7 h	24 ng/mL	328 ng·h/mL	65 ng·h/mL/mg
O=C1CCC(N2Cc3cc(C#CCN4CCN(c5ccc(C(F)(F)F)cc5)CC4)ccc3C2=O)C(=O)N1 (stereo not drawn)			4 h	6.7 h	1050 ng/mL	15300 ng·h/mL	1527 ng·h/mL/mg
O=C1CCC(N2Cc3ccc(C#CCN4CCN(CC#CCOc5ccc(C(F)(F)F)cc5)CC4)cc3C2=O)C(=O)N1 (stereo not drawn)				8.5 h	1250 ng/mL	7960 ng·h/mL	796 ng·h/mL/mg

Now from value to compound:

Activity [1]	pIC50 [2]	half-life [3]	Tmax [4]	Cmax [5]	AUC(0-t) at 24 h [6]	AUCt/dose [7]	SMILES
		8.6 h	1.2 h	1050 ng/mL	7080 ng·h/mL	708 ng·h/mL/mg	O=C1CCC(N2C(=O)c3ccc(N4CCN(C5CN(CC#CCOc6ccc(C(F)(F)F)cc6)C5)CC4)cc3C2=O)C(=O)N1 (stereo not drawn)
		5.3 h	4.7 h	71 ng/mL	1160 ng·h/mL	116 ng·h/mL/mg	O=C1CCC(N2C(=O)c3cccc(N4CCN(C5CCN(CCCCOc6ccc(C(F)(F)F)cc6)CC5)CC4)c3C2=O)C(=O)N1 (stereo not drawn)
		3.4 h	10 h	223 ng/mL	2810 ng·h/mL	281 ng·h/mL/mg	O=C1CCC(N2C(=O)c3ccc(N4CCN(C5CN(CCCCOc6ccc(C(F)(F)F)cc6)C5)CC4)cc3C2=O)C(=O)N1 (stereo not drawn)
		9.7 h	1.2 h	269 ng/mL	142 ng·h/mL	143 ng·h/mL/mg	O=C1CCC(N2C(=O)c3cccc(N4CCN(C5CCN(CC#CCOc6ccc(C(F)(F)F)cc6)CC5)CC4)c3C2=O)C(=O)N1 (stereo not drawn)
		112 h	10.7 h	68 ng/mL	1130 ng·h/mL	113 ng·h/mL/mg	O=C1CCC(N2C(=O)c3cccc(N4CCN(CC5CCN(CCCCOc6ccc(C(F)(F)F)cc6)CC5)CC4)c3C2=O)C(=O)N1 (stereo not drawn)
		8.9 h	11 h	419 ng/mL	4350 ng·h/mL	435 ng·h/mL/mg	O=C1CCC(N2C(=O)c3cccc(N4CCN(CC5CCN(CC#CCOc6ccc(C(F)(F)F)cc6)CC5)CC4)c3C2=O)C(=O)N1 (stereo not drawn)
		10.3 h	0.9 h	194 ng/mL	1720 ng·h/mL	172 ng·h/mL/mg	O=C1CCC(N2C(=O)c3cccc(N4CCN(CC#CCN5CCN(c6ccc(C(F)(F)F)cc6)CC5)CC4)c3C2=O)C(=O)N1 (stereo not drawn)
